Measured values as given in the NIST ThermoML archive (doi:10.1021/acs.jced.6b00888).

Details: 101.3 kPa, Liquid, Vibrating tube method

CN(C)CCO [2-(N,N-dimethylamino)ethanol]
Details | mass density [kg/m3]
293.15 K | 888.2
298.15 K | 884
303.15 K | 879.8
308.15 K | 875.5
313.15 K | 871.2
318.15 K | 866.8
323.15 K | 862.4
328.15 K | 858
333.15 K | 853.5
338.15 K | 849
343.15 K | 844.4
